Experimental findings from patent US10047051B2, “Substituted pyridines and method of use” (AbbVie S.á{acute over (.)}r.l., priority 2015, dated 2018) are described below.

Type in all cases: cell-based
One experiment has as its target T1, CFTR-S549N (Homo sapiens, UniProt P13569, S549N).
T1 construct: expressed in transfected cells
The experiment is described as follows: YFP-halide influx assay for the CFTR-S549N. More on the design: % Activation: concentration or dose not given beside the values. Summed up:
(§1)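 HEK293 cells reverse-transfected with a CFTR mutant and YFP H148Q/I152L/F47L halide sensor, expressed 24 h at 37° C. Fluorescence quenching followed for 7 s after I⁻ injection; activity expressed as 1−F/F0, with EC50 fitted from 1−F/F0 versus compound concentration.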

A further experiment addresses T2, CFTR G551D/ΔF508 (Homo sapiens, UniProt P13569, G551D).
T2 construct: host or cells: primary human bronchial epithelial cells from CF patients heterozygous G551D/ΔF508, no corrector pre-treatment
The experiment is described as follows: TECC assay, primary bronchial epithelial cells, CFTR G551D/ΔF508. To be noted: primary bronchial epithelial cells heterozygous G551D/ΔF508, acute mode, increase in Isc after forskolin. The procedure: (§2) The TECC (Tranepithelial Clamp Circuit, EP-design) assay measures the functionality of the cystic fibrosis Transmembrane Conductance regulator (CFTR) by measuring the short circuit current (Isc) generated over the basolateral and apical membrane of lung epithelial cells. In TECC the transepithelial potential PD and transepithelial resistance (Rt) are measured in an open circuit and transformed to Isc using Ohm's law. 24 Wells can be measured simultaneously allowing a higher throughput compared to Ussing chambers.
(§3) For this purpose, bronchial epithelial cells isolated from CF patients homozygous for the CFTR ΔF508 mutation (hAEC-CF, Epithelix) are plated on type IV collagen-coated Transwell® supports (Costar). Human airway epithelia are generated by provision of an air-liquid interface for 21 days to form well-differentiated polarized cultures that resemble in vivo pseudo-stratified ciliated epithelium (Fulcher, M. L., Gabriel, S., Burns, K. A., Yankaskas, J. R., Randell, S. H., 2005. Well-differentiated human airway epithelial cell cultures. Methods Mol. Med. 107, 183-206). In the case of the homozygous ΔF508 CFTR samples, the differentiated cells are treated with 3 μM VX809 (2626 South Loop West, Suite 225, Houston, Tex. 77054 USA, Cat n# S1565) to allow sufficient expression of properly folded CFTR protein on the membrane (48 hours basolateral treatment and 24 hours apical treatment), prior to electrophysiological recordings. For heterozygous G551D/ΔF508, differentiated cells are used as such for the recordings.
(§4) Information on the compounds can be retrieved on the homozygous ΔF508 CFTR samples looking at increased CFTR activity when compounds are added in an acute mode or in a chronic mode. On G551D/ΔF508 CFTR heterozygous samples compounds are added in an acute mode to the differentiated cells.
(§5) For the acute mode, for electrophysiological recording, the human airway epithelia are mounted in the TECC heating plate for electrophysiological measurement and kept at 37° C. The epithelia are bathed in a NaCl-Ringer solution (120 mM NaCl, 25 mM NaHCO3, 1.2 mM CaCl2, 1.2 mM MgCl2, 0.8 mM KH2PO4, 0.8 mM K2HPO4, pH 7.4, 5 mM glucose) on both the basolateral and apical sides. Apical amiloride is used to inhibit the endogenous ENaC currents while forkolin is applied on both apical and basolateral side to stimulate CFTR. After forskolin triggering, compounds are added on both sides to test their potential for increasing CFTR gating. Measurements are done during a 20 minute timeframe with recordings every 2 minutes. The increase in Isc is used as a measure for the increased CFTR activity, EC50 values can be generated by measuring impact of different concentrations of compound on Isc on primary cells, for this purpose each transwell is treated with a different compound concentration. Inh-172, an inhibitor specific for CFTR, is used to test the specificity of the tested compounds.
When subjected to this protocol, the following values were obtained. The difference between ΔIsc measured as DMSO (baseline), and the ΔIsc measured with the compound tested.

In another experiment the target is T3, CFTR G551D mutant (Homo sapiens, UniProt P13569, G551D).
T3 construct: expressed in transfected cells; host or cells: HEK293 cells, reverse transfection with plasmids
Nature of the experiment: YFP-halide influx assay for the CFTR-G551D mutation (HEK293 cells). Conditions: forskolin 10.67 μM. In a few lines:
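Channel opening read as I⁻-driven quenching of a YFP H148Q/I152L/F47L reporter over 7 s post-injection, expressed as 1−F/F0 and fitted against concentration for EC50. Cells were HEK293 co-transfected at seeding with G551D CFTR plus reporter, then grown 24 h at 37 °C, 5% CO2.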

The target in another experiment is T4, CFTR-G1349D (Homo sapiens, UniProt P13569, G1349D).
T4 construct: expressed in transfected cells
The experiment is described as follows: YFP-halide influx assay for the CFTR-G1349D. Summed up:
as §1

Another experiment addresses T5, CFTR ΔF508 mutant (Homo sapiens, UniProt P13569, DEL508-508).
T5 construct: expressed in transfected cells; host or cells: CFBE41o- cells, adenoviral transduction
Nature of the experiment: YFP-halide influx assay for the CFTR-ΔF508 mutation (CFBE41o- cells). To be noted: forskolin 10.67 μM; for EC50: from (1−F/F0) vs concentration plot. In a few lines:
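EC50 derived from plotting 1−F/F0 (fluorescence 36 s after iodide injection over pre-injection value) against compound concentration. Cells: CFBE41o- transduced with ΔF508-CFTR and YFP quench reporter, corrected 24 h at 27° C or by a CFTR modulator at 37° C.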

The target of another experiment is T6, CFTR-R117H (Homo sapiens, UniProt P13569, R117H).
T6 construct: expressed in transfected cells
The experiment is described as follows: YFP-halide influx assay for the CFTR-R117H. In a few lines:
as §1

The target of a further experiment is T7, CFTR-G178R (Homo sapiens, UniProt P13569, G178R).
T7 construct: expressed in transfected cells
Nature of the experiment: YFP-halide influx assay for the CFTR-G178R. In a few lines: as §1

A further experiment concerns the target T8, CFTR ΔF508 (Homo sapiens, UniProt P13569, DEL508-508).
T8 construct: host or cells: primary human bronchial epithelial cells from CF patients homozygous for ΔF508, pre-treated with VX809
The experiment is described as follows: TECC assay, primary bronchial epithelial cells, CFTR ΔF508. Conditions: primary bronchial epithelial cells of CF patients homozygous for CFTR ΔF508, treated with 3 μM VX809, increase in Isc after forskolin. The procedure:
as §2, §3, §4, §5
For the chronic mode, the differentiated cells are treated with 3 μM VX809 (2626 South Loop West, Suite 225, Houston, Tex. 77054 USA, Cat n# S1565) and potentiator compounds at different concentrations (48 hours basolateral treatment and 24 hours apical treatment), prior to electrophysiological recordings. For electrophysiological recording, the human airway epithelia are mounted in the TECC heating plate for electrophysiological measurement and kept at 37° C. The epithelia are bathed in a NaCl-Ringer solution (120 mM NaCl, 25 mM NaHCO3, 1.2 mM CaCl2, 1.2 mM MgCl2, 0.8 mM KH2PO4, 0.8 mM K2HPO4, pH 7.4, 5 mM glucose) on both the basolateral and apical sides. Apical amiloride is used to inhibit the endogenous ENaC currents while forkolin is applied on both apical and basolateral side to stimulate CFTR. Measurements are done during a 20 minute timeframe with recordings every 2 minutes. […]

T8 sequence (P13569 with tags, fused parts or gaps DEL508-508): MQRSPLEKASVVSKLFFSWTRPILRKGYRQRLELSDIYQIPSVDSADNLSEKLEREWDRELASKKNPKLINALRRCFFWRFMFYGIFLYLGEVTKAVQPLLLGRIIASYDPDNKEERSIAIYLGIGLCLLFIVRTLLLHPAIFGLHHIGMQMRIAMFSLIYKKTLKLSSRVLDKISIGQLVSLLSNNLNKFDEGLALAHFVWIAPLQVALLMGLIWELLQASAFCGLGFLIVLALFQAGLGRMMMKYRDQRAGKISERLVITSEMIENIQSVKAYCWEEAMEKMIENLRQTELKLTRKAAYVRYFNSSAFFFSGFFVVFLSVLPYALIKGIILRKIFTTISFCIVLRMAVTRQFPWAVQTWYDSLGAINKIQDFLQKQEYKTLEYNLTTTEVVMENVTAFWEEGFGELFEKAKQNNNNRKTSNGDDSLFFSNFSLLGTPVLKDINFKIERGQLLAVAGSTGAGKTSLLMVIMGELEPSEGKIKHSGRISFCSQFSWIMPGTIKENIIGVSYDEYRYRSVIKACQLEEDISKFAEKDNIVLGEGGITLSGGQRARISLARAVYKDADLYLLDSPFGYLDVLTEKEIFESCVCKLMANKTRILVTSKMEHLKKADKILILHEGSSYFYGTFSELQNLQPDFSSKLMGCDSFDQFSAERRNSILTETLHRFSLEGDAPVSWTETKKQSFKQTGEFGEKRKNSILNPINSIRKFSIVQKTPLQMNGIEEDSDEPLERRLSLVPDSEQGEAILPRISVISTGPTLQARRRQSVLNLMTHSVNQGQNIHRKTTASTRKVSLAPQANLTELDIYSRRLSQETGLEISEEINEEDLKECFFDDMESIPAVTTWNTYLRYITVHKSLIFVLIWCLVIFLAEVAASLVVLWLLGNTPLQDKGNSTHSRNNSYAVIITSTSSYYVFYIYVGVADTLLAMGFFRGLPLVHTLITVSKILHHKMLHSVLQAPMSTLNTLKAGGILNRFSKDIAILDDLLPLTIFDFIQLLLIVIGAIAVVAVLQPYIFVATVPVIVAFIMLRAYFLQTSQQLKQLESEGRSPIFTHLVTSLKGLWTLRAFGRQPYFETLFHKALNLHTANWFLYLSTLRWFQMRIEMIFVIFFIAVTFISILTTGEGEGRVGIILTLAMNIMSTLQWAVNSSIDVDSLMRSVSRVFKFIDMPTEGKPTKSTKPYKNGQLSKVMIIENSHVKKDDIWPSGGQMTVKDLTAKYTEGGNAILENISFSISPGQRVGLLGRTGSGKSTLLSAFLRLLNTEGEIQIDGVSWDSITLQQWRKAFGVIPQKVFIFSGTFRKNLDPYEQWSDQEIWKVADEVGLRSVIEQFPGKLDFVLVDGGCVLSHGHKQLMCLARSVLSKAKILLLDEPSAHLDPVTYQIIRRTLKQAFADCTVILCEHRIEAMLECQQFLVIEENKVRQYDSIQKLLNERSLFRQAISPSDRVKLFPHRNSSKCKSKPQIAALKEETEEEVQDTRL
T5 sequence (P13569 with tags, fused parts or gaps DEL508-508): as above
T1 sequence (P13569 whole entry S549N): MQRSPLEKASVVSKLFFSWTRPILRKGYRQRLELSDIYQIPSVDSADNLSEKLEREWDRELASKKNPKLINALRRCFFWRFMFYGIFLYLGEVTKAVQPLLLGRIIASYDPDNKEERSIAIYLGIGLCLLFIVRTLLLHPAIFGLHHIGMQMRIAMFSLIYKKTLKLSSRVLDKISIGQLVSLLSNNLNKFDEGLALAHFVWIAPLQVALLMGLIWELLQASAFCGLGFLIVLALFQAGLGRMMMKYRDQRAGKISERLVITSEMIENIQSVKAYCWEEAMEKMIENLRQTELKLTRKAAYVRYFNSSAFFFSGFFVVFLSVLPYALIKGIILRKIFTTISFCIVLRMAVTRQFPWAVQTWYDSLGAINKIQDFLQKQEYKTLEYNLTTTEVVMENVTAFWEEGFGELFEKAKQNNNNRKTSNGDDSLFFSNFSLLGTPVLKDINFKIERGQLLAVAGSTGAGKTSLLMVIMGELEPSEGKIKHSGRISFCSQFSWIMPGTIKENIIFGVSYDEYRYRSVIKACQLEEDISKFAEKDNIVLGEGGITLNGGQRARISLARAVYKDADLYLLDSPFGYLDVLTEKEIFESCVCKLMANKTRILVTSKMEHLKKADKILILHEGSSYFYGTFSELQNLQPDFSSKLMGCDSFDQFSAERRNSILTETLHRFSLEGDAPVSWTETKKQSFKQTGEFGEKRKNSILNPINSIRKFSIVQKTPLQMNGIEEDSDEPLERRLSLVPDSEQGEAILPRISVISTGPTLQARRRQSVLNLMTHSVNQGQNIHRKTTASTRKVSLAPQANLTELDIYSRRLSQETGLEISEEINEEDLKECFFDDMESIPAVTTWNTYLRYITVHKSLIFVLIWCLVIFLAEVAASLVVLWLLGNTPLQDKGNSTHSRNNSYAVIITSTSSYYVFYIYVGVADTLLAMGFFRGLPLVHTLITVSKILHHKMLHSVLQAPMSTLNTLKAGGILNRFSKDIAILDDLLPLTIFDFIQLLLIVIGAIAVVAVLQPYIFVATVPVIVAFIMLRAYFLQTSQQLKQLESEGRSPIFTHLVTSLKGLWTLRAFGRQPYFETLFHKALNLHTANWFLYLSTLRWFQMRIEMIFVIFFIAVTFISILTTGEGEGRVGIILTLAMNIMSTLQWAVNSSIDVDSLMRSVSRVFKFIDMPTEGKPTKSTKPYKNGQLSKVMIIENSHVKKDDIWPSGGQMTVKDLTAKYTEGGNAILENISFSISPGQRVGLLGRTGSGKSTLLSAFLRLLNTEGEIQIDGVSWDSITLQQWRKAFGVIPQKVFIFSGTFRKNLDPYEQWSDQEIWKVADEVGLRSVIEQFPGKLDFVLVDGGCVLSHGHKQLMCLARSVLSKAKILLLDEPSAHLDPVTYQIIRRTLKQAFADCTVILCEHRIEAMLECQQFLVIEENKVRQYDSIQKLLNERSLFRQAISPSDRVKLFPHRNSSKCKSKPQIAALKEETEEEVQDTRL
T3 sequence (P13569 whole entry G551D): as the sequence (P13569 whole entry S549N) above, with N549S, G551D counted along it
T6 sequence (P13569 whole entry R117H): as the sequence (P13569 whole entry S549N) above, with R117H, N549S counted along it
T2 sequence (P13569 whole entry F508del/G551D): as the sequence (P13569 with tags, fused parts or gaps DEL508-508) above, with G550D counted along it
T4 sequence (P13569 whole entry G1349D): as the sequence (P13569 whole entry S549N) above, with N549S, G1349D counted along it
T7 sequence (P13569 whole entry G178R): as the sequence (P13569 whole entry S549N) above, with G178R, N549S counted along it

Turning to `CC(C)OCC(O)CNC(=O)c1ncc(S(=O)(=O)c2ccc(C(F)(F)F)cc2)cc1N` (centres unmarked) [Compound 92, 3-amino-N-[2-hydroxy-3-(propan-2-yloxy)propyl]-5-{[4-(trifluoromethyl)phenyl]sulfonyl}pyridine-2-carboxamide], the “% Activation” value at CFTR-S549N is 98.96%; on CFTR G551D mutant, 79.0%; at CFTR-G1349D it was 91.24%; at CFTR ΔF508 mutant, 118.5%; on CFTR-R117H, 94.77%; at CFTR-G178R it was 104.9%. Also, the EC50 on CFTR-S549N was 131 nM; on CFTR G551D/ΔF508, 144 nM; on CFTR G551D mutant, 210 nM; on CFTR-G1349D it was 30.6 nM; on CFTR ΔF508 mutant it was 7.2 nM; at CFTR-R117H, 97.7 nM. The compound further displayed an EC50 on CFTR-G178R of 145 nM.

`Nc1cc(S(=O)(=O)N2CCC(C(F)(F)F)CC2)cnc1C(=O)NCC(O)C(F)(F)F` (centres unmarked) [Compound 95, 3-amino-N-(3,3,3-trifluoro-2-hydroxypropyl)-5-{[4-(trifluoromethyl)piperidin-1-yl]sulfonyl}pyridine-2-carboxamide]: the “% Activation” value on CFTR-S549N is reported as 65.61%; on CFTR G551D mutant it was 54.2%; on CFTR-G1349D, 71.97%; on CFTR ΔF508 mutant, 104.0%; on CFTR-R117H, 88.62%; on CFTR-G178R it was 80.8%. The EC50 at CFTR-S549N was determined as 86.4 nM; at CFTR G551D/ΔF508, 487 nM; at CFTR G551D mutant, 300 nM; at CFTR-G1349D, 75.4 nM; at CFTR ΔF508 mutant, 5.7 nM; on CFTR-R117H it was 138 nM. On CFTR-G178R, this compound returned an EC50 of 226 nM.

On to `CC1(C)CN(C(=O)c2ncc(S(=O)(=O)c3ccc(OC(F)(F)F)cc3)cc2N)C1` [Compound 59, (3-amino-5-{[4-(trifluoromethoxy)phenyl]sulfonyl}pyridin-2-yl)(3,3-dimethylazetidin-1-yl)methanone], for which the EC50 is 50.4 nM on CFTR ΔF508, 1630 nM on CFTR G551D mutant and 34.3 nM on CFTR ΔF508 mutant. In addition, the “% Activation” value at CFTR G551D mutant is given as 84.6%; at CFTR ΔF508 mutant it was 111.0%.

For `CC(C)OC[C@H](O)CNC(=O)c1ncc(S(=O)(=O)c2ccc(C(F)(F)F)cc2)cc1N` [Compound 252, 3-amino-N-[(2R)-2-hydroxy-3-(propan-2-yloxy)propyl]-5-{[4-(trifluoromethyl)phenyl]sulfonyl}pyridine-2-carboxamide], the EC50 on CFTR G551D/ΔF508 turned out to be 62.2 nM; at CFTR G551D mutant, 215 nM; at CFTR ΔF508 mutant it was 2.5 nM. Further, the “% Activation” value worked out at 99.7% on CFTR G551D mutant and 102.0% on CFTR ΔF508 mutant.

Regarding `COC[C@H](O)CNC(=O)c1ncc(S(=O)(=O)c2ccc(C(F)(F)F)cc2F)cc1N` [Compound 99, 3-amino-5-{[2-fluoro-4-(trifluoromethyl)phenyl]sulfonyl}-N-[(2R)-2-hydroxy-3-methoxypropyl]pyridine-2-carboxamide], the figures for the EC50 at CFTR G551D/ΔF508, at CFTR G551D mutant and on CFTR ΔF508 mutant were 358 nM, 796 nM and 7.6 nM, respectively. For the same compound, the “% Activation” value at CFTR G551D mutant is 91.7%; on CFTR ΔF508 mutant, 109.5%.

Take `COCC(O)CNC(=O)c1ncc(S(=O)(=O)c2ccc(OC(F)(F)F)cc2F)cc1N` (centres unmarked) [Compound 71, 3-amino-5-{[2-fluoro-4-(trifluoromethoxy)phenyl]sulfonyl}-N-(2-hydroxy-3-methoxypropyl)pyridine-2-carboxamide]: the EC50 stood at 112 nM on CFTR ΔF508, 1260 nM at CFTR G551D mutant and 19.1 nM at CFTR ΔF508 mutant. In addition, the results for the “% Activation” value on CFTR G551D mutant and at CFTR ΔF508 mutant were 70.2% and 108.0%, respectively.

`CCOCCOCC(O)CNC(=O)c1ncc(S(=O)(=O)c2ccc(OC(F)(F)F)cc2)cc1N` (centres unmarked) [Compound 38, 3-amino-N-[3-(2-ethoxyethoxy)-2-hydroxypropyl]-5-{[4-(trifluoromethoxy)phenyl]sulfonyl}pyridine-2-carboxamide]: the EC50 at CFTR ΔF508 worked out at 91.3 nM; at CFTR G551D mutant it was 1110 nM; at CFTR ΔF508 mutant it was 61.6 nM. Besides, the “% Activation” value at CFTR G551D mutant is reported as 86.0%; on CFTR ΔF508 mutant it was 103.0%.

Take `Nc1cc(S(=O)(=O)c2ccc(OC(F)(F)F)cc2)cnc1C(=O)NCC1CCCO1` (centres unmarked) [Compound 7, 3-amino-N-(tetrahydrofuran-2-ylmethyl)-5-{[4-(trifluoromethoxy)phenyl]sulfonyl}pyridine-2-carboxamide]: the EC50 at CFTR G551D/ΔF508 turned out to be 7720 nM; on CFTR G551D mutant it was 723 nM; on CFTR-G1349D, 549 nM; on CFTR ΔF508 mutant, 69.1 nM; on CFTR-R117H, 479 nM. Moreover, the “% Activation” value stood at 73.5% on CFTR G551D mutant, 63.0% on CFTR-G1349D, 103.5% on CFTR ΔF508 mutant and 82.7% at CFTR-R117H.

`Nc1cc(S(=O)(=O)c2ccccc2)cnc1C(=O)NC[C@@H](O)C(F)(F)F` [Compound 253, 3-amino-5-(phenylsulfonyl)-N-[(2R)-3,3,3-trifluoro-2-hydroxypropyl]pyridine-2-carboxamide]: the EC50 is 1440 nM at CFTR G551D/ΔF508, 1070 nM at CFTR G551D mutant and 6 nM on CFTR ΔF508 mutant. Further, the “% Activation” value on CFTR G551D mutant was 51.2%; on CFTR ΔF508 mutant, 102.6%.

In general, EC50 refers to the midpoint of the concentration-response curve.
